Data published in PubChem BioAssay (NCI).
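Each compound was tested at five concentrations against cells in 96-well plates for 48 hours. The concentration for 50% growth inhibition is given as GI50. TGI is the concentration that stops growth completely.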

Experiments:
Assay in all cases: inhibition of tumour cell growth, NCI panel, 48 h
M14 melanoma = system: M14 melanoma
HT29 colon = system: HT29 colon
HCT-15 colon = system: HCT-15 colon
HS 578T breast = system: HS 578T breast
UACC-62 melanoma = system: UACC-62 melanoma
OVCAR-8 ovarian = system: OVCAR-8 ovarian
SF-295 CNS = system: SF-295 CNS
CCRF-CEM leukemia = system: CCRF-CEM leukemia
MDA-MB-435 = system: MDA-MB-435
A498 renal = system: A498 renal
SW-620 colon = system: SW-620 colon
SF-539 CNS = system: SF-539 CNS
SF-268 CNS = system: SF-268 CNS
SK-OV-3 ovarian = system: SK-OV-3 ovarian
RPMI-8226 leukemia = system: RPMI-8226 leukemia
SK-MEL-28 melanoma = system: SK-MEL-28 melanoma
MOLT-4 leukemia = system: MOLT-4 leukemia
UACC-257 melanoma = system: UACC-257 melanoma
HCC-2998 colon = system: HCC-2998 colon
TK-10 renal = system: TK-10 renal
U251 CNS = system: U251 CNS
PC-3 prostate = system: PC-3 prostate
OVCAR-3 ovarian = system: OVCAR-3 ovarian
CAKI-1 renal = system: CAKI-1 renal
OVCAR-4 ovarian = system: OVCAR-4 ovarian
HOP-92 NSCLC = system: HOP-92 NSCLC
EKVX NSCLC = system: EKVX NSCLC
NCI-H522 lung = system: NCI-H522 lung
NCI-H23 lung = system: NCI-H23 lung
SNB-19 CNS = system: SNB-19 CNS
786-0 renal = system: 786-0 renal
UO-31 renal = system: UO-31 renal
SK-MEL-2 melanoma = system: SK-MEL-2 melanoma
ACHN renal = system: ACHN renal
DU-145 prostate = system: DU-145 prostate
HCT-116 colon = system: HCT-116 colon
SNB-75 CNS = system: SNB-75 CNS
MDA-MB-231 breast = system: MDA-MB-231 breast
MCF7 breast = system: MCF7 breast
KM12 colon = system: KM12 colon
K-562 leukemia = system: K-562 leukemia
BT-549 breast = system: BT-549 breast
A549 NSCLC = system: A549 NSCLC
HOP-62 NSCLC = system: HOP-62 NSCLC
SK-MEL-5 melanoma = system: SK-MEL-5 melanoma
T-47D breast = system: T-47D breast
SN12C renal = system: SN12C renal
LOX IMVI melanoma = system: LOX IMVI melanoma
NCI-H460 lung = system: NCI-H460 lung
NCI/ADR-RES ovarian = system: NCI/ADR-RES ovarian

O=C1c2ccccc2-c2c1c1ccccc1c(=O)n2CCCCl
GI50 (M14 melanoma): 35.5 µM | TGI (M14 melanoma): > 100 µM | GI50 (HT29 colon): 37.2 µM | TGI (HT29 colon): > 100 µM | GI50 (HCT-15 colon): 5.99 µM | TGI (HCT-15 colon): > 100 µM | GI50 (HS 578T breast): 17.6 µM | TGI (HS 578T breast): 73.5 µM | GI50 (UACC-62 melanoma): 6.75 µM | TGI (UACC-62 melanoma): 23.9 µM | GI50 (OVCAR-8 ovarian): 9.28 µM | TGI (OVCAR-8 ovarian): 44.8 µM | GI50 (SF-295 CNS): 6.34 µM | TGI (SF-295 CNS): 23.1 µM | GI50 (CCRF-CEM leukemia): 3.86 µM | TGI (CCRF-CEM leukemia): > 100 µM | GI50 (MDA-MB-435): 28 µM | TGI (MDA-MB-435): > 100 µM | GI50 (A498 renal): 7.88 µM | TGI (A498 renal): 28.5 µM | GI50 (SW-620 colon): 8.75 µM | TGI (SW-620 colon): > 100 µM | GI50 (SF-539 CNS): 4.11 µM | TGI (SF-539 CNS): 21.5 µM | GI50 (SF-268 CNS): 10.3 µM | TGI (SF-268 CNS): 80.8 µM | GI50 (SK-OV-3 ovarian): 19.1 µM | TGI (SK-OV-3 ovarian): 62.2 µM | GI50 (RPMI-8226 leukemia): 61.7 µM | TGI (RPMI-8226 leukemia): > 100 µM | GI50 (SK-MEL-28 melanoma): > 100 µM | TGI (SK-MEL-28 melanoma): > 100 µM | GI50 (MOLT-4 leukemia): 1.61 µM | TGI (MOLT-4 leukemia): 4.38 µM | GI50 (UACC-257 melanoma): 12.6 µM | TGI (UACC-257 melanoma): 76.5 µM | GI50 (HCC-2998 colon): 10.4 µM | TGI (HCC-2998 colon): 96.6 µM | GI50 (TK-10 renal): 3.26 µM | TGI (TK-10 renal): 14.3 µM | GI50 (U251 CNS): 11 µM | TGI (U251 CNS): 31.5 µM | GI50 (PC-3 prostate): 24.9 µM | TGI (PC-3 prostate): > 100 µM | GI50 (OVCAR-3 ovarian): 3.23 µM | TGI (OVCAR-3 ovarian): 8.18 µM | GI50 (CAKI-1 renal): 3.63 µM | TGI (CAKI-1 renal): 19.1 µM | GI50 (OVCAR-4 ovarian): > 100 µM | TGI (OVCAR-4 ovarian): > 100 µM | GI50 (HOP-92 NSCLC): 16.8 µM | TGI (HOP-92 NSCLC): 43.3 µM | GI50 (EKVX NSCLC): 18.1 µM | TGI (EKVX NSCLC): > 100 µM | GI50 (NCI-H522 lung): 37.4 µM | TGI (NCI-H522 lung): > 100 µM | GI50 (NCI-H23 lung): 15.7 µM | TGI (NCI-H23 lung): 50.1 µM | GI50 (SNB-19 CNS): 34.2 µM | TGI (SNB-19 CNS): > 100 µM | GI50 (786-0 renal): 4.86 µM | TGI (786-0 renal): 18.2 µM | GI50 (UO-31 renal): 6.47 µM | TGI (UO-31 renal): 69.2 µM | GI50 (SK-MEL-2 melanoma): 47.4 µM | TGI (SK-MEL-2 melanoma): > 100 µM | GI50 (ACHN renal): 3.03 µM | TGI (ACHN renal): 12.3 µM | GI50 (DU-145 prostate): 6.22 µM | TGI (DU-145 prostate): > 100 µM | GI50 (HCT-116 colon): 3.65 µM | TGI (HCT-116 colon): 17.8 µM | GI50 (SNB-75 CNS): 8.4 µM | TGI (SNB-75 CNS): 36.6 µM | GI50 (MDA-MB-231 breast): 11.4 µM | TGI (MDA-MB-231 breast): 39.8 µM | GI50 (MCF7 breast): 2.18 µM | TGI (MCF7 breast): 62.4 µM | GI50 (KM12 colon): 34 µM | TGI (KM12 colon): > 100 µM | GI50 (K-562 leukemia): 12.7 µM | TGI (K-562 leukemia): > 100 µM | GI50 (BT-549 breast): 14.6 µM | TGI (BT-549 breast): 58.3 µM | GI50 (A549 NSCLC): 3.23 µM | TGI (A549 NSCLC): 16 µM | GI50 (HOP-62 NSCLC): 1.77 µM | TGI (HOP-62 NSCLC): 6.57 µM | GI50 (SK-MEL-5 melanoma): 5.92 µM | TGI (SK-MEL-5 melanoma): > 100 µM | GI50 (T-47D breast): 22.5 µM | TGI (T-47D breast): > 100 µM | GI50 (SN12C renal): 12.1 µM | TGI (SN12C renal): 51.8 µM | GI50 (LOX IMVI melanoma): 6.78 µM | TGI (LOX IMVI melanoma): 35.7 µM | GI50 (NCI-H460 lung): 3.57 µM | TGI (NCI-H460 lung): > 100 µM | GI50 (NCI/ADR-RES ovarian): 16.9 µM | TGI (NCI/ADR-RES ovarian): 73.3 µM
